Measured values reported in the NIST ThermoML archive (doi:10.1016/j.tca.2014.06.031).

Legend:
[1] = xn = mol fraction of the nth substance listed; details: 101 kPa, Liquid; for speed of sound: Frequency=3 MHz, Sing-around technique in a fixed-path interferometer; for mass density: Vibrating tube method
[2] = refractive index (Na D-line) (dimensionless); xn = mol fraction of the nth substance listed; details: 101 kPa, Liquid, Standard Abbe refractometry

CCCCCCC(=O)O [heptanoic acid] + CCCCC(=O)O
Details | mass density, [1] [kg/m3] | refractive index, [2] | speed of sound, [1] [m/s]
293.15 K, x1 = 0.0641 | 937.59 | 1.4099 | 1238.8
293.15 K, x1 = 0.1207 | 936.02 | 1.4111 | 1242.9
293.15 K, x1 = 0.2317 | 933.14 | 1.41293 | 1250.6
293.15 K, x1 = 0.3413 | 930.46 | 1.41469 | 1257.9
293.15 K, x1 = 0.4383 | 928.25 | 1.41617 | 1264.1
293.15 K, x1 = 0.5402 | 926.08 | 1.4176 | 1270.3
293.15 K, x1 = 0.6442 | 923.97 | 1.41903 | 1276.3
293.15 K, x1 = 0.7342 | 922.25 | 1.42021 | 1281.4
293.15 K, x1 = 0.8259 | 920.58 | 1.42135 | 1286.4
293.15 K, x1 = 0.9173 | 919 | 1.42244 | 1291.2
293.15 K, x1 = 0.962 | 918.26 | 1.42297 | 1293.4
293.15 K, x1 = 1 | 917.65 | 1.42336 | 1295.4
298.15 K, x1 = 0.0641 | 933.06 | 1.40789 | 1220.8
298.15 K, x1 = 0.1207 | 931.51 | 1.40904 | 1225
298.15 K, x1 = 0.2317 | 928.68 | 1.41092 | 1232.8
298.15 K, x1 = 0.3413 | 926.05 | 1.41267 | 1240.1
298.15 K, x1 = 0.4383 | 923.88 | 1.41413 | 1246.3
298.15 K, x1 = 0.5402 | 921.74 | 1.41562 | 1252.5
298.15 K, x1 = 0.6442 | 919.68 | 1.41705 | 1258.6
298.15 K, x1 = 0.7342 | 917.98 | 1.4182 | 1263.7
298.15 K, x1 = 0.8259 | 916.35 | 1.41936 | 1268.7
298.15 K, x1 = 0.9173 | 914.79 | 1.42048 | 1273.5
298.15 K, x1 = 0.962 | 914.07 | 1.42099 | 1275.8
298.15 K, x1 = 1 | 913.47 | 1.42138 | 1277.7
303.15 K, x1 = 0.0641 | 928.52 | 1.40585 | 1202.7
303.15 K, x1 = 0.1207 | 926.99 | 1.40698 | 1206.9
303.15 K, x1 = 0.2317 | 924.22 | 1.40886 | 1214.7
303.15 K, x1 = 0.3413 | 921.64 | 1.41062 | 1222.1
303.15 K, x1 = 0.4383 | 919.51 | 1.41208 | 1228.3
303.15 K, x1 = 0.5402 | 917.4 | 1.41356 | 1234.6
303.15 K, x1 = 0.6442 | 915.38 | 1.41498 | 1240.7
303.15 K, x1 = 0.7342 | 913.71 | 1.4162 | 1245.8
303.15 K, x1 = 0.8259 | 912.11 | 1.41733 | 1250.8
303.15 K, x1 = 0.9173 | 910.58 | 1.41842 | 1255.7
303.15 K, x1 = 0.962 | 909.87 | 1.41896 | 1257.9
303.15 K, x1 = 1 | 909.29 | 1.41935 | 1259.9
308.15 K, x1 = 0.0641 | 923.98 | 1.40383 | 1184.8
308.15 K, x1 = 0.1207 | 922.48 | 1.40496 | 1189
308.15 K, x1 = 0.2317 | 919.75 | 1.40684 | 1196.9
308.15 K, x1 = 0.3413 | 917.23 | 1.40857 | 1204.2
308.15 K, x1 = 0.4383 | 915.14 | 1.41004 | 1210.5
308.15 K, x1 = 0.5402 | 913.07 | 1.41151 | 1216.8
308.15 K, x1 = 0.6442 | 911.08 | 1.41294 | 1223
308.15 K, x1 = 0.7342 | 909.45 | 1.41413 | 1228.1
308.15 K, x1 = 0.8259 | 907.87 | 1.41531 | 1233.1
308.15 K, x1 = 0.9173 | 906.38 | 1.41643 | 1238
308.15 K, x1 = 0.962 | 905.68 | 1.41695 | 1240.3
308.15 K, x1 = 1 | 905.11 | 1.41733 | 1242.2
313.15 K, x1 = 0.0641 | 919.44 | 1.40175 | 1167
313.15 K, x1 = 0.1207 | 917.97 | 1.40283 | 1171.2
313.15 K, x1 = 0.2317 | 915.29 | 1.40471 | 1179.1
313.15 K, x1 = 0.3413 | 912.82 | 1.40649 | 1186.6
313.15 K, x1 = 0.4383 | 910.77 | 1.40796 | 1192.9
313.15 K, x1 = 0.5402 | 908.74 | 1.40944 | 1199.2
313.15 K, x1 = 0.6442 | 906.79 | 1.41086 | 1205.4
313.15 K, x1 = 0.7342 | 905.19 | 1.41209 | 1210.5
313.15 K, x1 = 0.8259 | 903.64 | 1.41324 | 1215.6
313.15 K, x1 = 0.9173 | 902.17 | 1.41437 | 1220.4
313.15 K, x1 = 0.962 | 901.49 | 1.4149 | 1222.7
313.15 K, x1 = 1 | 900.94 | 1.4153 | 1224.7

CCCCC(=O)O [pentanoic acid] + CCCC(=O)O
Details | mass density, [1] [kg/m3] | refractive index, [2] | speed of sound, [1] [m/s]
293.15 K, x2 = 0 | 939.41 | 1.4084 | 1234
293.15 K, x2 = 0.0472 | 940.14 | 1.40813 | 1232.3
293.15 K, x2 = 0.0938 | 940.86 | 1.4077 | 1230.6
293.15 K, x2 = 0.1944 | 942.46 | 1.40676 | 1226.9
293.15 K, x2 = 0.2928 | 944.08 | 1.40581 | 1223.3
293.15 K, x2 = 0.3946 | 945.82 | 1.40481 | 1219.5
293.15 K, x2 = 0.4922 | 947.56 | 1.40383 | 1215.8
293.15 K, x2 = 0.5938 | 949.45 | 1.40278 | 1211.9
293.15 K, x2 = 0.6929 | 951.38 | 1.40174 | 1208
293.15 K, x2 = 0.7973 | 953.48 | 1.4006 | 1203.8
293.15 K, x2 = 0.895 | 955.52 | 1.39949 | 1199.9
298.15 K, x2 = 0 | 934.85 | 1.40641 | 1216
298.15 K, x2 = 0.0472 | 935.55 | 1.40607 | 1214.3
298.15 K, x2 = 0.0938 | 936.26 | 1.40563 | 1212.6
298.15 K, x2 = 0.1944 | 937.82 | 1.40469 | 1208.9
298.15 K, x2 = 0.2928 | 939.4 | 1.40374 | 1205.2
298.15 K, x2 = 0.3946 | 941.11 | 1.40274 | 1201.4
298.15 K, x2 = 0.4922 | 942.81 | 1.40175 | 1197.6
298.15 K, x2 = 0.5938 | 944.66 | 1.4007 | 1193.6
298.15 K, x2 = 0.6929 | 946.54 | 1.39965 | 1189.7
298.15 K, x2 = 0.7973 | 948.6 | 1.3985 | 1185.4
298.15 K, x2 = 0.895 | 950.6 | 1.39744 | 1181.4
303.15 K, x2 = 0 | 930.29 | 1.40438 | 1197.9
303.15 K, x2 = 0.0472 | 930.96 | 1.40399 | 1196.2
303.15 K, x2 = 0.0938 | 931.65 | 1.40355 | 1194.5
303.15 K, x2 = 0.1944 | 933.18 | 1.4026 | 1190.7
303.15 K, x2 = 0.2928 | 934.73 | 1.40164 | 1187
303.15 K, x2 = 0.3946 | 936.39 | 1.40063 | 1183.1
303.15 K, x2 = 0.4922 | 938.05 | 1.39964 | 1179.3
303.15 K, x2 = 0.5938 | 939.87 | 1.39857 | 1175.2
303.15 K, x2 = 0.6929 | 941.71 | 1.39751 | 1171.2
303.15 K, x2 = 0.7973 | 943.73 | 1.39639 | 1166.9
303.15 K, x2 = 0.895 | 945.68 | 1.39533 | 1162.8
308.15 K, x2 = 0 | 925.73 | 1.40234 | 1179.9
308.15 K, x2 = 0.0472 | 926.37 | 1.4019 | 1178.2
308.15 K, x2 = 0.0938 | 927.04 | 1.40146 | 1176.5
308.15 K, x2 = 0.1944 | 928.53 | 1.40051 | 1172.7
308.15 K, x2 = 0.2928 | 930.05 | 1.39955 | 1168.9
308.15 K, x2 = 0.3946 | 931.68 | 1.39853 | 1164.9
308.15 K, x2 = 0.4922 | 933.3 | 1.39753 | 1161
308.15 K, x2 = 0.5938 | 935.08 | 1.39646 | 1156.9
308.15 K, x2 = 0.6929 | 936.87 | 1.39541 | 1152.9
308.15 K, x2 = 0.7973 | 938.85 | 1.39431 | 1148.5
308.15 K, x2 = 0.895 | 940.76 | 1.39326 | 1144.3
313.15 K, x2 = 0 | 921.16 | 1.4003 | 1162.1
313.15 K, x2 = 0.0472 | 921.78 | 1.39983 | 1160.4
313.15 K, x2 = 0.0938 | 922.44 | 1.39937 | 1158.6
313.15 K, x2 = 0.1944 | 923.89 | 1.39841 | 1154.8
313.15 K, x2 = 0.2928 | 925.37 | 1.39745 | 1151
313.15 K, x2 = 0.3946 | 926.97 | 1.39642 | 1146.9
313.15 K, x2 = 0.4922 | 928.55 | 1.39542 | 1143
313.15 K, x2 = 0.5938 | 930.29 | 1.39437 | 1138.9
313.15 K, x2 = 0.6929 | 932.04 | 1.39332 | 1134.7
313.15 K, x2 = 0.7973 | 933.98 | 1.39222 | 1130.2
313.15 K, x2 = 0.895 | 935.84 | 1.39118 | 1126
